Measurements reported in patent US20240309059A1, “PEPTIDE HAVING ANTI-VIRAL ACTIVITY, ANTI-VIRAL AGENT COMPRISING SAID PEPTIDE, AND METHOD FOR PRODUCING SAID ANTI-VIRAL AGENT” (National University Corporation Tokyo Medical and Dental …, priority 2021, published 2024).
Ends that are not written are not given here.

How the values were obtained:
[1] = test system: wild-type SARS-COV-2
[2] = solubility to 50 mM HEPES buffer solution (pH 8.0); type: physicochemical; settings: room temperature
Protocol: In this Example, Ce113, Ce149, Ce172, Ce173 and Ce174 developed in the aforementioned Examples were each dissolved in 50 mM HEPES buffer solution (pH 8.0) and the degrees of solubility of them to 50 mM HEPES buffer solution (pH 8.0) were computationally obtained.
Ce113, Ce149, Ce172, Ce173 and Ce174 having the aforementioned amino acid sequences were chemically synthesized and each dissolved in a 50 mM HEPES buffer solution (pH 8.0). To describe more specifically, the peptides chemically synthesized were each added to the 50 mM HEPES buffer solution (pH 8.0) of 250 μL and stirred by pipetting using a micropipette a sufficient number of times and allowed to stand still at room temperature. When undissolved residue was not present, the peptide was further added and the same operation was repeated. When undissolved residue was present, the sample was allowed to stand still for 10 minutes, stirred by pipetting using a micropipette a sufficient number of times and allowed to stand still at room temperature. The operation of this step was repeated further twice and then concentration was measured by NanoPhotometer NP80 manufactured by IMPLEN to evaluate the degrees of solubility to the 50 mM HEPES buffer solution (pH 8.0).

[3] = solubility to ultra-pure water; type: physicochemical; settings: room temperature
Protocol: In this Example, Ce4, Ce9, Ce41 and Ce59 developed in the aforementioned Examples were each dissolved in ultra-pure water and the degrees of solubility of them to ultra-pure water were computationally obtained.
Ce4, Ce9, Ce41 and Ce59 having the aforementioned amino acid sequences were chemically synthesized and each dissolved in ultra-pure water. To describe more specifically, the peptides chemically synthesized were each added to ultra-pure water of 250 μL and stirred by pipetting using a micropipette a sufficient number of times and allowed to stand still at room temperature. When undissolved residue was not present, the peptide was further added and the same operation was repeated. When undissolved residue was present, the sample was allowed to stand still for 10 minutes, again stirred by pipetting using a micropipette a sufficient number of times and allowed to stand still at room temperature. After the operation in this step was repeated further twice, concentration was measured by NanoPhotometer NP80 manufactured by IMPLEN to evaluate the degrees of solubility to ultra-pure water.

[4] = biological target: receptor binding domain (RBD) in wild-type SARS-COV-2 (Severe acute respiratory syndrome coronavirus 2, UniProt P0DTC2); settings: result in words (binding rate and degree of dissociation)

`CC[C@H](C)[C@H](NC(=O)[C@H](CC(C)C)NC(=O)[C@H](CC(=O)O)NC(=O)[C@H](CO)NC(=O)[C@@H](NC(=O)[C@H](CCCNC(=N)N)NC(=O)[C@H](CCSC)NC(=O)[C@H](CO)NC(=O)[C@H](C)NC(=O)[C@H](CCC(=O)O)NC(=O)[C@H](C)NC(=O)[C@H](Cc1c[nH]cn1)NC(=O)CNC(=O)[C@H](CC(C)C)NC(=O)[C@H](CCC(=O)O)NC(=O)[C@H](CC(=O)O)NC(=O)[C@H](CC(C)C)NC(=O)[C@H](CC(C)C)NC(=O)[C@H](CCCNC(=N)N)NC(=O)[C@H](CCSC)NC(=O)[C@@H](NC(=O)[C@H](CCC(=O)O)NC(=O)[C@H](Cc1ccc(O)cc1)NC(=O)[C@@H](NC(=O)[C@H](CCCCN)NC(=O)[C@H](CCC(N)=O)NC(=O)[C@H](CC(C)C)NC(=O)[C@@H](NC(=O)[C@H](Cc1c[nH]c2ccccc12)NC(=O)[C@H](CCC(=O)O)NC(=O)[C@H](CCCCN)NC(=O)[C@@H](N)CC(=O)O)[C@@H](C)CC)[C@@H](C)CC)[C@@H](C)CC)C(C)C)C(=O)N[C@@H](Cc1ccc(O)cc1)C(=O)N[C@@H](CCC(=O)O)C(=O)N[C@@H](Cc1ccccc1)C(=O)N[C@@H](CCSC)C(=O)N[C@@H](CCCCN)C(=O)N[C@@H](CCCCN)C(=O)NCC(=O)O` [Ca1, reference compound] showed an IC50 [1] of 107 nM.
For `CC[C@H](C)[C@H](NC(=O)[C@H](CC(C)C)NC(=O)[C@H](CC(=O)O)NC(=O)[C@H](CO)NC(=O)[C@@H](NC(=O)[C@H](CCCNC(=N)N)NC(=O)[C@H](CCSC)NC(=O)[C@H](CO)NC(=O)[C@H](C)NC(=O)[C@H](CCC(=O)O)NC(=O)[C@H](C)NC(=O)[C@H](Cc1c[nH]cn1)NC(=O)CNC(=O)[C@H](CC(C)C)NC(=O)[C@H](CCC(=O)O)NC(=O)[C@H](CC(=O)O)NC(=O)[C@H](CC(C)C)NC(=O)[C@H](CC(C)C)NC(=O)[C@H](CCCNC(=N)N)NC(=O)[C@H](CCSC)NC(=O)[C@@H](NC(=O)[C@H](CCC(=O)O)NC(=O)[C@H](Cc1ccc(O)cc1)NC(=O)[C@@H](NC(=O)[C@H](CCCCN)NC(=O)[C@H](CCC(N)=O)NC(=O)[C@H](CC(C)C)NC(=O)[C@@H](NC(=O)[C@H](Cc1c[nH]c2ccccc12)NC(=O)[C@H](CCC(=O)O)NC(=O)[C@H](CCCCN)NC(=O)[C@@H](N)CC(=O)O)[C@@H](C)CC)[C@@H](C)CC)[C@@H](C)CC)C(C)C)C(=O)N[C@@H](Cc1ccc(O)cc1)C(=O)N[C@@H](CCC(=O)O)C(=O)N[C@@H](Cc1ccccc1)C(=O)N[C@@H](CCSC)C(=O)N[C@@H](CCCCN)C(=O)N[C@@H](CCCCN)C(=O)N[C@@H](CC(=O)O)C(=O)O` [Ce1], the IC50 [1] was 1.5 nM.
For “DKEWILQKIYEIMQRLDEEGHGEASLMVSDLIYEFMKRD [Ce113]”, the solubility thermodynamic at 30 min [2] was 2500 µM.
“DKEWILQKIYEIMRKLDEDGHAEASMRVSDLIYEFMKKD [Ce4]” gave a solubility thermodynamic at 30 min [3] of 4400 µM.
Work on “DKEWILQKIYEIMRRLDEEGHAEASMRVSDLIYEFMKKD [Ce9]” yielded an IC50 [1] of 0.4 nM and a solubility thermodynamic at 30 min [3] of 5200 µM.
For “DKEWILQKIYEIMRRLDEEGHGEASLRVSDLIYEFMKKD [Ce41]”, the “binding activity to the receptor binding domain (RBD)” value [4] was “high binding activity” and the solubility [3] was 6100 µM.
“DKEWILQKIYEIMRRLDEEGHGEASLRVSDLIYEFMKRD [Ce59]” gave a solubility thermodynamic at 30 min [3] of 6100 µM.
For “DKEWILYKIYEIMQRLDEEGHGEASLMVSDLIYEFMKRD [Ce174]”, the solubility thermodynamic at 30 min [2] was 1600 µM.
“DKEWILYKIYEIMVRLDEEGHGEASLMVSDLIYEFMKRD [Ce149]” showed a solubility thermodynamic at 30 min [2] of 1300 µM.
Work on “DKLWILQKIYEIMQRLDEEGHGEASLMVSDLIYEFMKRD [Ce173]” yielded a solubility thermodynamic at 30 min [2] of 1500 µM.
In the case of “DKLWILQKIYEIMVRLDEEGHGEASLMVSDLIYEFMKRD [Ce172]”, the solubility thermodynamic at 30 min [2] is reported as 1100 µM.
